# Laboratory results reported in patent US7501512B2, “Chemical compounds” (SmithKline Beecham Corporation, priority 2003, dated 2009).
# Molecular target: T1, hYAK3 (Homo sapiens, UniProt O43781)
# T1 construct: made in house; host or cells: baculovirus expression system in Sf9 cells
# T1 sequence (O43781 124-526): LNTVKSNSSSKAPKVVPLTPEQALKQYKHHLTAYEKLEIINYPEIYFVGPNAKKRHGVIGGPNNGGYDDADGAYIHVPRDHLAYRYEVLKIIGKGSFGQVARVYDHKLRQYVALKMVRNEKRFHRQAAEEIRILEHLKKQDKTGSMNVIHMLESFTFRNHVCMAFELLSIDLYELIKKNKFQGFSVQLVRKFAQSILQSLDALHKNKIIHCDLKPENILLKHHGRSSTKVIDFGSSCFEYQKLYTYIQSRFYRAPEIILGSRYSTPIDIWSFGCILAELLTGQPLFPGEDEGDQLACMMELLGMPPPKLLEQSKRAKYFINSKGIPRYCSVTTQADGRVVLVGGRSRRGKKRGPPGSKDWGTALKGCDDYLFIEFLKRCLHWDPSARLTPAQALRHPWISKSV
# Assay: YAK3 scintillation proximity assay using Ser164 of myelin basic protein as phosphoacceptor
# Type: biochemical
# Conditions: purified GST-hYak3-His6, 0.001 mM ATP, 4 μM Ser164 peptide; read-out: pIC50 values (converted)
# Experimental: YAK3 Scintillation Proximity Assays Using Ser164 of Myelin Basic Protein as the Phosphoacceptor
# The source of Ser164 substrate peptide The biotinylated Ser164, S164A peptide (Biotinyl-LGGRDSRAGS*PMARR-OH), sequence derived from the C-terminus of bovine myelin basic protein (MBP) with Ser162 substituted as Ala162, was purchased from California Peptide Research Inc. (Napa, Calif.), and its purity was determined by HPLC. Phosphorylation occurs at position 164 (marked S* above). The calculated molecular mass of the peptide was 2166 dalton. Solid sample was dissolved at 10 mM in DMSO, aliquoted, and stored at −20° C. until use.
# hYAK3: Glutathione-S-Transferase (GST)-hYak3-His6 containing amino acid residues 124-526 of human YAK3 (aa 124-526 of SEQ ID NO 2. in U.S. Pat. No. 6,323,318) was purified from baculovirus expression system in Sf9 cells using Glutathione Sepharose 4B column chromatography followed by Ni-NTA-Agarose column chromatography. Purity greater than 65% typically was achieved. Samples, in 50 mM Tris, 150 mM NaCl, 10% glycerol, 0.1% Triton, 250 mM imidazole, 10 mM β-mercapto ethanol, pH 8.0. were stored at −80° C. until use.
# Kinase assay of purified hYAK3: Assays were performed in 96 well (Costar, Catalog No. 3789) or 384 well plates (Costar, Catalog No. 3705). Reaction (in 20, 25, or 40 μl volume) mix contained in final concentrations 25 mM Hepes buffer, pH 7.4; 10 mM MgCl2; 10 mM β-mercapto ethanol; 0.0025% Tween-20; 0.001 mM ATP, 0.1 μCi of [γ-^33P]ATP; purified hYAK3 (7-14 ng/assay; 4 nM final); and 4 μM Ser164 peptide. Compounds, titrated in DMSO, were evaluated at concentrations ranging from 50 μM to 0.5 nM. […] Reactions were incubated for 2 hours at room temperature and were stopped by a 75 ul addition of […] Streptavidin Scintillation Proximity beads (Amersham Pharmacia Biotech, Catalog No. RPNQ 0007) in PBS, pH 7.4, 10 mM EDTA, 0.1% Triton X-100, 1 mM ATP. Under the assay conditions defined above, the Km (apparent) for ATP was determined to be 7.2+/−2.4 μM.
row,IC50 [nM],SMILES
1,10.2 to 100,"COc1ccc2c(c1)CCn1c-2cc(NCCN(C)C)nc1=O [Iw, 2-(2-Dimethylamino-ethylamino)-9-methoxy-6,7-dihydro-pyrimido[6,1-a]isoquinolin-4-one]"
2,102 to 1000,"COc1ccc2c(c1)CCn1c-2cc(Nc2ccccc2Br)nc1=O [Ie, 2-(2-Bromo-phenylamino)-9-methoxy-6,7-dihydro-pyrimido[6,1-a]isoquinolin-4-one]"
3,10.2 to 100,"COc1ccc2c(c1)CCn1c-2cc(Nc2c(OC)cccc2OC)nc1=O [Ia, 2-(2,6-Dimethoxy-phenylamino)-9-methoxy-6,7-dihydro-pyrimido[6,1-a]isoquinolin-4-one]"
4,102 to 1000,"COc1ccc(CNc2cc3n(c(=O)n2)CCc2cc(OC)ccc2-3)cc1 [Iz, 9-Methoxy-2-(4-methoxy-benzylamino)-6,7-dihydro-pyrimido[6,1-a]isoquinolin-4-one]"

# Molecular target: MAPKAP2 kinase (MK2) (Homo sapiens, UniProt P49137)
# Assay: MAPKAP2 kinase (MK2) enzyme assay
# Type: biochemical
# Conditions: 1 nM recombinant MK2, 1 μM ATP, 1 μM peptide substrate; read-out: pIC50 values (converted)
# Experimental: Compounds are tested for MAPKAP2 kinase (MK2) inhibitory activity in an assay that measures the MK2 catalyzed transfer of the γ-phosphate from ATP to serine/threonine residues of a biotinylated peptide [NH2-K(biotin)-KLNRTLSVA (SynPep Corporation, USA)]. Compounds under analysis are dissolved in DMSO to 1 mM and serially diluted 3-fold with DMSO in 96 or 384-well polypropylene or polystyrene plates for a total of 10-12 different concentrations. One uL of each concentration is transferred to the corresponding well of a 96 or 384-well, white, polystyrene assay plate. Reactions are performed in a final volume of 26 uL. An ATP solution (10 uL) is added to each well, and the reaction is initiated by the addition of a MK2/peptide mix (15 uL). The ATP solution is made in H2O and consists of 2.6 μM nonradioactive ATP (SigmaUltra) and 6.5 uCi/mL [γ-^33P]-ATP (Amersham Pharmacia Biotech). The MK2/peptide mix consists of 86.7 mM HEPES (SigmaUltra), pH 7.5, 8.67 mM MgCl2 (SigmaUltra), 0.0043% Tween 20, 1.73 mM dithiothreitol (added fresh from frozen 1M stock), 1.73 μM peptide, and 1.73 nM purified recombinant MK2. Final concentrations of the assay components are 50 mM HEPES, pH 7.5, 5 mM MgCl2, 0.0025% Tween 20, 1 mM dithiothreitol, 1 μM ATP, 2.5 μCi/mL [γ-^33P]-ATP, 1 μM peptide substrate, and 1 nM MK2. The reaction is allowed to proceed for 40 minutes and is then terminated by the addition of ‘stop solution’ (20 uL), followed by the addition of ‘bead mix’ (50 uL). […] The plates are allowed to sit for approximately 8 hours and then are quantitated using a TopCount NXF™ (Packard). Alternatively, the plates are allowed to sit for at least approximately 1 hour, centrifuged at 900 rpm for 3 minutes, and then quantitated using a TopCount NXT™ (Packard). […] Percent inhibition of MK2 activity is calculated for each compound concentration using Equation [1] […]
# [formula] where Y2 is the baseline percent inhibition, Vmax is the net maximum percent inhibition (baseline subtracted), and K is the IC50. […] The results for each compound are recorded as pIC50, calculated using Equation [3]. pIC50=−log10([…]) (3)
# MAPKAP2 kinase (MK2), sequence (P49137 whole entry, species assumed): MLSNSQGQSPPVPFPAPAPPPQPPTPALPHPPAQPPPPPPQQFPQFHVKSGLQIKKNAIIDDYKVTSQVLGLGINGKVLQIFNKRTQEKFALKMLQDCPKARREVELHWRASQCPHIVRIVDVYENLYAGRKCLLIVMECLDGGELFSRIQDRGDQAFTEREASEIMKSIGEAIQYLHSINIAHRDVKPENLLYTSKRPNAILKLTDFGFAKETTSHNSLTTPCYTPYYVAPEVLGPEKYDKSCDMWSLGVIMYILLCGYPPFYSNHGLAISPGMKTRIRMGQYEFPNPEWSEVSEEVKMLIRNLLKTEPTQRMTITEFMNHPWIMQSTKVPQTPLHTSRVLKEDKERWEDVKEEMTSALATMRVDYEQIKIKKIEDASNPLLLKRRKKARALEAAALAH
row,IC50 [nM],SMILES
1,102 to 1000,"COc1ccc2c(c1)CCn1c-2cc(Nc2cccc(S(N)(=O)=O)c2)nc1=O [If, 3-(9-Methoxy-4-oxo-6,7-dihydro-4H-pyrimido[6,1-a]isoquinolin-2-ylamino)-benzenesulfonamide]"
2,10 to 100,"COCCN(C)c1cc2n(c(=O)n1)CCc1cc(OC)ccc1-2 [Iy, 9-Methoxy-2-[(2-methoxy-ethyl)-methyl-amino]-6,7-dihydro-pyrimido[6,1-a]isoquinolin-4-one]"
3,10 to 100,"COc1ccc2c(c1)CCn1c-2cc(NCCN2CCCC2)nc1=O [Iv, 9-Methoxy-2-(2-pyrrolidin-1-yl-ethylamino)-6,7-dihydro-pyrimido[6,1-a]isoquinolin-4-one]"
